One assay has as its target T1, P70S6 kinase (T412E) (Homo sapiens, UniProt P23443, T412E).
T1 construct: purchased Upstate 14-486
The assay can be described thus: P70s6 radiometric assay. In kind it is biochemical. As to conditions: ATP approximately 15 μM; enzyme 2 nM; read-out: IC50 (anti-P70S6K activity). On the procedure: P7086 enzyme is bought from Upstate and used at 2 nM in the assay.
In the phosphoryl transfer reaction, the ^33P-γ phosphate from ATP is transferred to the serine residue. The reaction mixture is transferred to a phosphocellulose filter plate where the peptide binds and the unused ATP is washed away. After washing, scintillant is added and the incorporated activity measured by scintillation counting.
S6 kinase substrate cocktail from Upstate (#20-122)
• 10 mM MOPS pH 7.0 • 0.1 mg/ml BSA • 0.001% Brij-35 • 0.5% glycerol • 0.2 mM EDTA • 10 mM MgCl2 • 0.01% β-mercaptoethanol • Made as a 10× stock, stored at […] in 2 ml aliquots • 15 μM ATP
ATP will break down over time, keep on ice as far as possible and use small aliquots to ensure the stock is fresh. • γ^33P-ATP APBiotech (BF1000) • 12.5% orthophosphoric acid • 0.5% orthophosphoric acid • Microscint 20 (Packard) Assay Preparation • Enzyme mix (per 1 ml—100 assay points): • 743.75 μl H2O • […] • 3.75 μl 10 mM ATP • 2.5 μl enzyme • Substrate mix (per 1 ml—100 assay points): • 250 μl S6 cocktail substrate • 750 μl H2O • 3.5 μl ^33P-ATP (BF1000 from APBiotech)
Compounds—prepare a dilution curve in DMSO in a polypropylene 96 well plate to 40× final assay concentration (final DMSO 2.5%).
In a polypropylene 96 well plate add in order: • 5 μl compound • 10 μl substrate mix • 10 μl enzyme mix
Final ATP concentration is approximately 15 μM. KM for ATP calculated to 47 uM radiometrically. Controls are “no compound” (DMSO only) and “no enzyme” (use 10 μl of the enzyme mix prior to adding enzyme). Cover with a plate seal (TopSeal A—Packard) or plastic lid from filter plate (moderate radiation barrier). Mix by gentle shaking. Incubate at room temperature for 50 minutes. Stop the reaction by adding 20 μl of 2% orthophosphoric acid.
Pre-wet the wells of a Millipore MAPH NOB plate with 50 μl of 0.5% orthophosphoric acid wash buffer. Filter the liquid through on a Millipore vacuum filtration unit. Transfer the whole of the stopped reaction to the wells. Filter through. Wash twice with 200 μl of 0.5% orthophosphoric acid wash buffer. Vacuum to near dryness. Remove the plate support and allow to the filters to dry further on tissue paper. Snap the plate into an adapter for the Packard TopCount. Add 20 μl of Microscint 20 scintillant, seal with a sheet of Topseal A and count for 30 s on the TopCount.
The compounds of examples 4, 13, 21, 22, 23, 42, 47, 71, 84, 85 and 98 were tested for anti-P70S6K activity (assay as described above): […]

For the next assay, the target named is ROCK-II (h) (Homo sapiens, UniProt O75116). Briefly: ROCK-II (h) assay (radiometric, 33P-ATP filtermat). In kind it is biochemical. As to conditions: read-out: IC50 (anti-ROCK-II activity). On the procedure: ROCK-II (h) Assay Protocol
In a final reaction volume of 25 μl, ROCK-II (h) (5-10 mU) is incubated with 50 mM Tris pH 7.5, 0.1 mM EGTA, 30 μM […], 10 mM MgAcetate and [γ-^33P-ATP] (specific activity approx. 500 cpm/pmol, concentration as required). The reaction is initiated by the addition of the MgATP mix. After incubation for 40 minutes at room temperature, the reaction is stopped by the addition of 5 μl of a 3% phosphoric acid solution. 10 μl of the reaction is then spotted onto a P30 filtermat and washed three times for 5 minutes in 75 mM phosphoric acid and once in methanol prior to drying and scintillation counting.
The compounds of examples 14, 22, 23, 57, 59 and 84 were tested for anti-ROCK-II activity (assay as described above): […]

For another assay, the system named is MM1 cells. As to conditions: continuous delivery using osmotic pumps; syngeneic rats; cited from earlier work.
The next assay deals with rat MM1 hepatoma cells. As to conditions: cited from earlier work.
Assay [1] deals with isolated rabbit urinary bladder smooth muscle. The conditions noted are these: cited from earlier work.

Results on 15 molecules are retold here after patent US8343953B2, “Pharmaceutical compounds” (Astex Therapeutics Limited, priority 2005, dated 2013).

The structures appear in SMILES notation. pIC50: −log10 of the molar value.

Chain of ROCK-II (h) (O75116 whole entry): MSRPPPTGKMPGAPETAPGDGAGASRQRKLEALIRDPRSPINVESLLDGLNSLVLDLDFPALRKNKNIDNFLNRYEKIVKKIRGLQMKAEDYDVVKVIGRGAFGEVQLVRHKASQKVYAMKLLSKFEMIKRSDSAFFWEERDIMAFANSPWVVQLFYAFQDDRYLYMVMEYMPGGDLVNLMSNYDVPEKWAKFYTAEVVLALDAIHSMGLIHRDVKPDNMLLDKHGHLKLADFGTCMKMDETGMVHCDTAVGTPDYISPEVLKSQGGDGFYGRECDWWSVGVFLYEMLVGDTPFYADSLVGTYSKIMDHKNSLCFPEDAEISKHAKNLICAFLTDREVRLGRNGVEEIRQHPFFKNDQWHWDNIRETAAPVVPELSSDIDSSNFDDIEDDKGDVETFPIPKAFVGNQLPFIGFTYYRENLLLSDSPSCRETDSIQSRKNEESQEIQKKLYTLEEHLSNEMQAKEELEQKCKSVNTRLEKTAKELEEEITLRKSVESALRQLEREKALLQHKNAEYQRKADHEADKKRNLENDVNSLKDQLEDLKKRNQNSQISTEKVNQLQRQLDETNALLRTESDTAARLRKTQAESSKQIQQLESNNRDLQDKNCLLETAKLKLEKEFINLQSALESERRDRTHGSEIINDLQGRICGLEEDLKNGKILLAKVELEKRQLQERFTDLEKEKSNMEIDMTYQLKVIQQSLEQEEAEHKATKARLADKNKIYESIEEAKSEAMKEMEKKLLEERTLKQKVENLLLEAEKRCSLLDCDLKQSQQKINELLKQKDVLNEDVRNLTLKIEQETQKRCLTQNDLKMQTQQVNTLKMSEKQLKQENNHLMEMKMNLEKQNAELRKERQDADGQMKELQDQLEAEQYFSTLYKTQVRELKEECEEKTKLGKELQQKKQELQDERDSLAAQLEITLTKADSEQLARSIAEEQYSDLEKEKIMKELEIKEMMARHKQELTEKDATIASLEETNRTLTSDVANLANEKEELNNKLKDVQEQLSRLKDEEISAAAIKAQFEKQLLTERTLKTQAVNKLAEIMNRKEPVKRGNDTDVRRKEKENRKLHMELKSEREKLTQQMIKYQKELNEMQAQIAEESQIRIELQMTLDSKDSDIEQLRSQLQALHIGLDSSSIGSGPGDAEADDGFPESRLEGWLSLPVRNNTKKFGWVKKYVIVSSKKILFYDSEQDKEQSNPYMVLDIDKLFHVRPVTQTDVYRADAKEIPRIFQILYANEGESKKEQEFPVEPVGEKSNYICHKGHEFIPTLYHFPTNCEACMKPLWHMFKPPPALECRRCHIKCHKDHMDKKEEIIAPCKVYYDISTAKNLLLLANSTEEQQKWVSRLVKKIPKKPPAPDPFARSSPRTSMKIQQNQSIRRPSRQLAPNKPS
T1 sequence (P23443 1-421 T412E limits assumed): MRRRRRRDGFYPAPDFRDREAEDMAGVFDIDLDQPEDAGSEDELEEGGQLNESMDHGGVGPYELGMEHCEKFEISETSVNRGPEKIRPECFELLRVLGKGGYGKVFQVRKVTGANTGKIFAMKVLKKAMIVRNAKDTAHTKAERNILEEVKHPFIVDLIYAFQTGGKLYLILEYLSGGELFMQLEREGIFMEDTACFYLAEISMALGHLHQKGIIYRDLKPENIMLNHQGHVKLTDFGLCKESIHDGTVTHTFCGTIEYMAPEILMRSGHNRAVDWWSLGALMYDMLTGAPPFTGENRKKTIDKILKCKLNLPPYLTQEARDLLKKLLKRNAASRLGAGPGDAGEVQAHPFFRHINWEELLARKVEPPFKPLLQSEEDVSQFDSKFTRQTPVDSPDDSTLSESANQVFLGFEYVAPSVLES

A word on the pIC50: it is the negative decadic logarithm of the IC50, by convention in mol/L. As to `NCC(c1ccc(Cl)cc1)c1ccc(-c2cn[nH]c2)cc1` (stereo not drawn) [Example 4, 2-(4-Chloro-phenyl)-2-[4-(1H-pyrazol-4-yl)-phenyl]-ethylamine], the pIC50 on P70S6 kinase (T412E) is more than 7.00. Regarding `NCCC(c1ccc(-c2cn[nH]c2)cc1)c1ccc(Cl)c(Cl)c1` (stereo not drawn) [Example 13, 3-(3,4-Dichloro-phenyl)-3-[4-(1H-pyrazol-4-yl)-phenyl]-propylamine], on P70S6 kinase (T412E), the pIC50 is more than 7.00.

Turning to `Clc1ccc(C2(c3ccc(-c4cn[nH]c4)cc3)CCNCC2)cc1` [Example 14, 4-(4-Chloro-phenyl)-4-[4-(1H-pyrazol-4-yl)-phenyl]-piperidine], the pIC50 on ROCK-II (h) is more than 7.00. On to `CNCC(c1ccc(Cl)cc1)c1ccc(-c2cn[nH]c2)cc1` (stereo not drawn) [Example 21, {2-(4-Chloro-phenyl)-2-[4-(1H-pyrazol-4-yl)-phenyl]-ethyl}-methyl-amine], for which, on P70S6 kinase (T412E), the pIC50 was more than 7.00. As to `CNC[C@@H](c1ccc(Cl)cc1)c1ccc(-c2cn[nH]c2)cc1` [Example 22, {2-(4-Chloro-phenyl)-2-[4-(1H-pyrazol-4-yl)-phenyl]-ethyl}-methyl-amine (R)], the pIC50 on ROCK-II (h) and at P70S6 kinase (T412E) was more than 7.00 in each case. For the molecule `CNC[C@H](c1ccc(Cl)cc1)c1ccc(-c2cn[nH]c2)cc1` [Example 23, {2-(4-Chloro-phenyl)-2-[4-(1H-pyrazol-4-yl)-phenyl]-ethyl}-methyl-amine (S)], the pIC50 on ROCK-II (h) and on P70S6 kinase (T412E) was more than 7.00 each time. Turning to `CNCC(c1ccc(Cl)cc1)c1ccc(-c2cn[nH]c2)cc1` (stereo not drawn) [Example 42, {2-(4-Chloro-phenyl)-2-[4-(1H-pyrazol-4-yl)-phenyl]-ethyl}-methyl-amine], at P70S6 kinase (T412E), the pIC50 was more than 7.00. Same read-out and setting: with `CNCC(c1ccc(Oc2cnccn2)cc1)c1ccc(-c2cn[nH]c2)cc1` (stereo not drawn) [Example 47, Methyl-{2-[4-(pyrazin-2-yloxy)-phenyl]-2-[4-(1H-pyrazol-4-yl)-phenyl]-ethyl}-amine] the figure was more than 7.00.

`Clc1ccc(C(c2ccc(-c3cn[nH]c3)cc2)N2CCNCC2)cc1` (stereo not drawn) [Example 57, 1-{(4-Chloro-phenyl)-[4-(1H-pyrazol-4-yl)-phenyl]-methyl}-piperazine]: the pIC50 on ROCK-II (h) is more than 7.00. The same measure, in the same setting: for `CNCCC(Oc1cccc(Cl)c1)c1ccc(-c2cn[nH]c2)cc1` (stereo not drawn) [Example 59, {3-(3-Chloro-phenoxy)-3-[4-(1H-pyrazol-4-yl)-phenyl]-propyl}-methyl-amine] the value was more than 7.00. Regarding `CNCC(Oc1ccc(Cl)cc1)c1ccc(-c2cn[nH]c2)cc1` (stereo not drawn) [Example 71, {2-(4-Chloro-phenoxy)-2-[4-(1H-pyrazol-4-yl)-phenyl]-ethyl}-methyl-amine], the pIC50 at P70S6 kinase (T412E) was more than 7.00. `NCC(O)(c1ccc(Cl)cc1)c1ccc(-c2cn[nH]c2)cc1` (stereo not drawn) [Example 84, 2-Amino-1-(4-chloro-phenyl)-1-[4-(1H-pyrazol-4-yl)-phenyl]-ethanol]: the pIC50 at ROCK-II (h) and on P70S6 kinase (T412E) was more than 7.00 in each case. On to `Clc1ccc(C2(c3ccc(-c4cn[nH]c4)cc3)CCNCC2)cc1Cl` [Example 85, 4-(3,4-Dichloro-phenyl)-4-[4-(1H-pyrazol-4-yl)-phenyl]-piperidine], for which the pIC50 at P70S6 kinase (T412E) was more than 7.00.

Take `NCC(c1ccc(-c2cn[nH]c2)cc1)c1ccc(Cl)c(Cl)c1` (stereo not drawn) [Example 98, 2-(3,4-Dichloro-phenyl)-2-[4-(1H-pyrazol-4-yl)-phenyl]-ethylamine]: the pIC50 on P70S6 kinase (T412E) is more than 7.00.

Turning to `C[C@@H](N)[C@H]1CC[C@H](C(=O)Nc2ccncc2)CC1` [Example Y-27632], the “dissemination of MM1 cells” value in the assay with MM1 cells was “considerably reduced”. For the same molecule, in the assay on rat MM1 hepatoma cells, the “Rho-mediated activation of actomyosin” value is reported as “blocked” and the “invasive activity of MM1 cells” value was “blocked”. Also, the bethanechol-evoked contractions entry in assay [1] is “attenuates”.
